Assay results from US20110021429A1, “Renoprotection by growth hormone-releasing hormone and agonists” (priority 2007, published 2011).
No end group written: not given here.

Legend:
[1] = Serum total IGF-1 levels after in vivo GHRH; parameters: species or system rat; conditions: high-NaCl fed rats injected with GHRH, 1 mg/kg BW sc/day, 2 days
Description: (§1) Two-month-old male Sprague Dawley rats (Charles River Canada, St-Constant, QC) were kept in temperature- (22° C.), humidity- (65%) and lighting- (12h cycles; lights on at 0700 h) controlled rooms and had free access to standard rat chow (2018 Tecklad global 18% protein rodent diet, containing 0.23% Na^+ and 0.4% Cl^−; Harlan Tecklad, Madison, Wis.) and tap water. Rats were acclimatized ≈3 days before going on a high-NaCl diet or water deprivation. Rats fed the custom-made high-NaCl diet for 2, 7 or 14 (8% NaCl; Harlan Tecklad) were compared to rats fed the custom-made control diet (0.3% NaCl; Harlan Tecklad). They had free access to water. Rats deprived of water for 3 or 5 days had free access to 2018 Tecklad rat chow. Rats used in the first series of experiments, to quantify GHRH-R mRNA levels following a 8%-NaCl diet or a water deprivation, were housed individually in metabolic cages for the entire duration of intervention. Body weight (BW), food and water intakes, and urine volume were recorded daily, and Na^+ levels were analyzed on the last 24h urine sample before sacrifice. Rats used in the 8%-NaCl diet/GHRH study were housed individually in plastic cages and BW and food intake were recorded daily. Rats were sacrificed in a block-design fashion between 0900-1130 h, by rapid decapitation. […]

[2] = system: anterior pituitary GHRH-R mRNA; test: Anterior pituitary GHRH-R mRNA levels after in vivo GHRH; parameters: species or system rat; conditions: 2-day in vivo GHRH
Description: as §1, with “Rats deprived of water for 3 or 5 days had free access to 2018 Tecklad rat chow.” left out, “daily.” for “daily. Rats were sacrificed in a block-design fashion between 0900-1130 h, by rapid decapitation.”
Total RNA was extracted as above. […] Membranes were subsequently washed, exposed to films, stripped and rehybridized with GAPDH 28S probes.^33 Quantification of each GHRH-R mRNA transcript (2.5 and 4 kb), GAPDH mRNA and 28S rRNA levels was performed by densitometry. […]

[3] = Body weight and food intake of rats on 8%-NaCl diet injected with GHRH; format: in vivo, rat; conditions: 2-day 8%-NaCl diet, injected with GHRH or saline
Description: as §1

GHRH-R mRNA [4] = test: Renal medulla GHRH-R mRNA levels after in vivo GHRH in high-NaCl fed rats; parameters: species or system rat; conditions: high-NaCl fed rats injected with GHRH, 1 mg/kg BW sc/day, 2 days
Description: as §1, with “Rats deprived of water for 3 or 5 days had free access to 2018 Tecklad rat chow.” left out, “daily.” for “daily. Rats were sacrificed in a block-design fashion between 0900-1130 h, by rapid decapitation.”
Total RNA from medullas and purified descending and ascending thin limb cells was extracted with TRIzol (Invitrogen Canada, Burlington, ON). […] Tissue GHRH-R and GAPDH mRNA and cRNA external standard levels were quantified by densitometry. […]

GHRH-R mRNA [5] = test: GHRH-R mRNA levels by real-time RT-PCR in purified thin limb cells after in vivo sc GHRH; parameters: species or system rat; conditions: 2 days; for GHRH-R mRNA levels: 1 mg/kg BW/day sc
Description: as §1, with “decapitation. Pituitaries, kidneys and livers were excised immediately and anterior pituitaries and renal medullas dissected out. Tissues were snap-frozen in liquid nitrogen and stored at −80° C. until RNA extraction.” for “decapitation.”
Total RNA from purified thin limb cells was extracted with TRIzol. […] Reverse transcription of 2 μg total RNA was performed using the SuperScript™ II RT kit (Invitrogen) and random hexamer primers, according to the manufacturer's protocol, including RNAse H treatement. mRNA levels of rat GHRH-R and rat GAPDH (internal control) were determined in separate tubes, by real-time PCR, using a 1/150 (GHRH-R) and 1/300 (GAPDH) dilution of the RT product and the reagents from the Quantitect™ SYBR® Green PCR kit (Qiagen, Mississauga, ON, CA), according to the manufacturer's recommendation. […]

CIC-K1 mRNA = CIC-K1 mRNA levels by real-time RT-PCR in purified thin limb cells after in vivo sc GHRH; parameters: species or system rat; conditions: 1 mg/kg BW/day sc, 2 days
[6] = system: thin limbs of Henle's loop cells; test: In vivo BrdU immunolabeling (DNA repair/synthesis) in purified thin limb cells; parameters: species or system rat; conditions: 1 mg/kg BW sc/day, 2 days, 8%-NaCl chow
Description: as §1, with “Rats deprived of water for 3 or 5 days had free access to 2018 Tecklad rat chow.” left out, “daily.” for “daily. Rats were sacrificed in a block-design fashion between 0900-1130 h, by rapid decapitation.”
BrdU immunolabeling (Roche Diagnostics, Laval, QC, CA) was used to quantify DNA repair/synthesis in purified thin limb cells from rat submitted 2 days to a 8%- or 0.3%-NaCl diet and injected with GHRH or saline. […]

[7] = 14-day sc administration, cited from earlier work
GHRH-R = biological target: T1, GHRH-R (Rattus norvegicus, UniProt Q02644); test: GHRH-induced intracellular cAMP production in freshly dispersed semi-purified thin limb cells (EIA); format: cell-based
T1 construct: endogenous in cells; host or cells: freshly dispersed semi-purified thin limb cells of Henle's loop from the renal medulla of 2-month-old male Sprague Dawley rats
T1 sequence (Q02644 53-423 isoform Q02644-2): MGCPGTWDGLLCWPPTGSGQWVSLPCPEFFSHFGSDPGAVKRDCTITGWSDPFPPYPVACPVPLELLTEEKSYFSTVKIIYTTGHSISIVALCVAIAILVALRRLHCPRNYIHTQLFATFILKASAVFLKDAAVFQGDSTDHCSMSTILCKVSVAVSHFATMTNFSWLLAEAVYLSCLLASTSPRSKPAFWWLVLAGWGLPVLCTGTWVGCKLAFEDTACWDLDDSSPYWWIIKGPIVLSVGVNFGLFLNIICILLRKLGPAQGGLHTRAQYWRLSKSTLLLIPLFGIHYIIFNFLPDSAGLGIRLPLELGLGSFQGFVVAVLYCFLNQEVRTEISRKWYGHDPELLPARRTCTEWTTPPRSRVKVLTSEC
Description: Cell dispersion of minced medullas to obtain semi-purified thin limb cells was performed as previously described.^33 These cells were used immediately for in vitro determination of basal and rGHRH(1-29)NH2-induced cAMP levels or purified by differential centrifugation for immunocytochemistry, using a continuous gradient of Nycodenz. The gradient was prepared as described by Grupp et al.^55 and thin limb cells were recovered in fraction I of the gradient after centrifugation at 1500 g (16° C., 45 min) and washed twice in HEPES-Ringer buffer (430 g, 16° C., 10 min). Cell viability, assessed by the Trypan Blue exclusion method, was around 95%. When purified thin limb cells were cultured, isolation and purification steps were performed under sterile conditions and media containing antibiotics.
Sensitivity to GHRH was assessed in freshly semi-purified thin limb cells^33 from rats fed a 8%-NaCl diet for 2, 7 or 14 days or the control diet. […] Supernatants were used to quantify immunoreactive cAMP levels (non-acetylated method). Pellets were kept frozen for determination of protein content.^59 Optical densities were measured at 450 nm, using a microplate reader (Bio-Rad, model 3550). […]

With “rGHRH(1-29)NH2 (HADAIFTSSYRRILGQLYARKLLHEIMNR-NH2) [rat growth hormone-releasing hormone fragment 1-29 amide, synthesized in the applicant's laboratory]” the “serum total insulin-like growth factor-1 (IGF-1) levels” value [1] was “not modified”, the “anterior pituitary GHRH-R mRNA levels” value [2] was “No significant regulatory effect” and the “body weight (BW)” value [3] was “No change”. The food intake [3] was “No change”, the “GHRH-R mRNA levels in the renal medulla” value (GHRH-R mRNA [4]) was “tended to increase” and the “regulation of renal GHRH-R mRNA levels in thin limb cells” value (GHRH-R mRNA [5]; 0.5 mg/kg BW/day sc, healthy rats, P<0.01) was “up-regulate”. For the same substance, the “GHRH-R mRNA levels” value (GHRH-R mRNA [5]; 5 other rats) was “decreased”, the “GHRH-R mRNA levels” value (GHRH-R mRNA [5]; subgroup of 3 rats) was “significantly increased” and the “CIC-K1 mRNA levels” value (CIC-K1 mRNA; 5 other rats) was “without significantly altering”. The “CICK-1 mRNA levels” value (CIC-K1 mRNA; subgroup of 3 rats) was “significantly increased”, the “increase in intensity of mitochondrial BrdU immunofluorescence” value [6] was “≈ 7 times” and the “increase in the number of ascending thin limb cell nuclei and mitochondria immunolabeled to BrdU” value ([6]; vs control groups) was 5 times. For the same substance, the “IGF-I serum levels significantly decreased” value ([7]; 0.5 mg/kg BW/day) was “not”, the IGF-I serum levels ([7]; 1 mg/kg BW/day) was “significantly decreased” and the “decrease of GHRH-induced cAMP production” value (GHRH-R; 1 nM and 100 nM, cells from rats fed 2 days 8%-NaCl chow vs control diet) was 1.5 fold. For the same substance, the “loss of sensitivity to GHRH (cAMP production)” value (GHRH-R; cells from rats fed the high-salt diet for 7 or 14 days) was “reverted”.
